Assays:
barley = test: Test B preemergence/postemergence greenhouse plant response rating 0 to 10; format: in vivo, Hordeum vulgare; conditions: for Plant response rating, Barley: 0 to 10 scale
Summary of the method: (§1)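 Test chemicals, dissolved in a non-phytotoxic solvent, were applied to soil at planting and, at the same time, over foliage of seedlings at the one to four leaf stage.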

bedstraw = test: as above; format: in vivo, Galium aparine; conditions: for Plant response rating, Bedstraw: 0 to 10 scale
Summary of the method: as §1

blackgrass = test: as above; format: in vivo, Alopecurus myosuroides; conditions: for Plant response rating, Blackgrass: 0 to 10 scale
Summary of the method: as §1

cocklebur = test: as above; format: in vivo, Xanthium pensylvanicum; conditions: for Plant response rating, Cocklebur: 0 to 10 scale
Summary of the method: as §1

crabgrass = test: as above; format: in vivo, Digitaria spp.; conditions: for Plant response rating, Crabgrass: 0 to 10 scale
Summary of the method: as §1

lambsquarters = test: as above; format: in vivo, Chenopodium album; conditions: for Plant response rating, Lambsquarter: 0 to 10 scale
Summary of the method: as §1

rape = test: as above; format: in vivo, Brassica napus; conditions: for Plant response rating, Rape: 0 to 10 scale
Summary of the method: as §1

rice [1] = test: as above; format: in vivo, Oryza sativa; conditions: for Plant response rating, Rice: 0 to 10 scale
Summary of the method: as §1

soybean = test: as above; format: in vivo, Glycine max; conditions: for Plant response rating, Soybean: 0 to 10 scale
Summary of the method: as §1

sugar beet = test: as above; format: in vivo, Beta vulgaris; conditions: for Plant response rating, Sugar beet: 0 to 10 scale
Summary of the method: as §1

purple nutsedge = test: as above; format: in vivo, Cyperus rotundus; conditions: for Plant response rating, Nutsedge: 0 to 10 scale
Summary of the method: as §1

corn = test: Test C preemergence/postemergence greenhouse plant response rating 0 to 100; format: in vivo, Zea mays; conditions: for Plant response rating, Corn: 125 g/ha, 0 to 100 scale
Summary of the method: (§2)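 Compounds in non-phytotoxic solvent went onto sandy loam before emergence (seeded one day earlier) or onto plants at the one-to-four leaf stage. Duck salad was treated via flood water (~2.5 cm, maintained) over silt loam.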

morningglory = test: as above; format: in vivo, Ipomoea hederacea; conditions: for Plant response rating, Morningglory: 125 g/ha, 0 to 100 scale
Summary of the method: as §2

pigweed = test: as above; format: in vivo, Amaranthusretroflexus; conditions: for Plant response rating Pigweed: 125 g/ha, 0 to 100 scale
Summary of the method: as §2

sorghum = test: as above; format: in vivo, Sorghum bicolor; conditions: for Plant response rating, Sorghum: 125 g/ha, 0 to 100 scale
Summary of the method: as §2

rice [2] = test: Test C flood test plant response rating 0 to 100; format: in vivo, Oryza sativa
Summary of the method: (§3)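 Compounds in non-phytotoxic solvent applied preemergence to sandy loam one day after planting, postemergence at the 1–4 leaf stage, or to ~2.5 cm floodwater over silt loam.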

umbrella sedge = test: Test C flood test plant response rating 0 to 100; format: in vivo, Cyperus difformis
Summary of the method: as §3

barnyardgrass = test: Test C flood test plant response rating 0 to 100; format: in vivo, Echinochloa crus-galli
Summary of the method: as §3

[3] = POSTEMERGENCE section, flood test, Rate 2 g/ha
[4] = Rate 8 g/ha, under POSTEMERGENCE head (flood test species)
[5] = Rate 31 g/ha, under POSTEMERGENCE head (flood test species)
[6] = flood test species listed under POSTEMERGENCE, 125 g/ha, 0 to 100 scale

COCOc1cc(-c2nn3c(c2Cl)CCCC3)c(F)cc1Cl [Compound 58]
Plant response rating, Barley (barley; POSTEMERGENCE, Rate 50 g/ha): 6
Plant response rating, Barley (barley; PREEMERGENCE, Rate 50 g/ha): 1
Plant response rating (0 to 10 scale), Barley (barley; PREEMERGENCE, Rate 200 g/ha): 4
Plant response rating, Barley (barley; Rate 200 g/ha, POSTEMERGENCE): 8
Plant response rating, Bedstraw (bedstraw; POSTEMERGENCE, Rate 50 g/ha): 10
Plant response rating, Bedstraw (bedstraw; PREEMERGENCE, Rate 50 g/ha): 6
Plant response rating (0 to 10 scale), Bedstraw (bedstraw; PREEMERGENCE, Rate 200 g/ha): 9
Plant response rating, Bedstraw (bedstraw; Rate 200 g/ha, POSTEMERGENCE): 9
Plant response rating, Blackgrass (blackgrass; POSTEMERGENCE, Rate 50 g/ha): 6
Plant response rating, Blackgrass (blackgrass; PREEMERGENCE, Rate 50 g/ha): 4
Plant response rating (0 to 10 scale), Blackgrass (blackgrass; PREEMERGENCE, Rate 200 g/ha): 7
Plant response rating, Blackgrass (blackgrass; Rate 200 g/ha, POSTEMERGENCE): 7
Plant response rating, Cocklebur (cocklebur; POSTEMERGENCE, Rate 50 g/ha): 6
Plant response rating, Cocklebur (cocklebur; PREEMERGENCE, Rate 50 g/ha): 0
Plant response rating (0 to 10 scale), Cocklebur (cocklebur; PREEMERGENCE, Rate 200 g/ha): 9
Plant response rating, Cocklebur (cocklebur; Rate 200 g/ha, POSTEMERGENCE): 10
Plant response rating, Crabgrass (crabgrass; POSTEMERGENCE, Rate 50 g/ha): 3
Plant response rating, Crabgrass (crabgrass; PREEMERGENCE, Rate 50 g/ha): 0
Plant response rating (0 to 10 scale), Crabgrass (crabgrass; PREEMERGENCE, Rate 200 g/ha): 9
Plant response rating, Crabgrass (crabgrass; Rate 200 g/ha, POSTEMERGENCE): 3
Plant response rating, Lambsquarter (lambsquarters; POSTEMERGENCE, Rate 50 g/ha): 10
Plant response rating, Lambsquarter (lambsquarters; PREEMERGENCE, Rate 50 g/ha): 10
Plant response rating (0 to 10 scale), Lambsquarter (lambsquarters; PREEMERGENCE, Rate 200 g/ha): 10
Plant response rating, Lambsquarter (lambsquarters; Rate 200 g/ha, POSTEMERGENCE): 10
Plant response rating, Rape (rape; POSTEMERGENCE, Rate 50 g/ha): 9
Plant response rating, Rape (rape; PREEMERGENCE, Rate 50 g/ha): 5
Plant response rating (0 to 10 scale), Rape (rape; PREEMERGENCE, Rate 200 g/ha): 5
Plant response rating, Rape (rape; Rate 200 g/ha, POSTEMERGENCE): 10
Plant response rating, Rice (rice [1]; POSTEMERGENCE, Rate 50 g/ha): 4
Plant response rating, Rice (rice [1]; PREEMERGENCE, Rate 50 g/ha): 0
Plant response rating (0 to 10 scale), Rice (rice [1]; PREEMERGENCE, Rate 200 g/ha): 0
Plant response rating, Rice (rice [1]; Rate 200 g/ha, POSTEMERGENCE): 5
Plant response rating, Soybean (soybean; POSTEMERGENCE, Rate 50 g/ha): 7
Plant response rating, Soybean (soybean; PREEMERGENCE, Rate 50 g/ha): 0
Plant response rating (0 to 10 scale), Soybean (soybean; PREEMERGENCE, Rate 200 g/ha): 0
Plant response rating, Soybean (soybean; Rate 200 g/ha, POSTEMERGENCE): 9
Plant response rating, Sugar beet (sugar beet; POSTEMERGENCE, Rate 50 g/ha): 10
Plant response rating, Sugar beet (sugar beet; PREEMERGENCE, Rate 50 g/ha): 9
Plant response rating (0 to 10 scale), Sugar beet (sugar beet; PREEMERGENCE, Rate 200 g/ha): 10
Plant response rating, Sugar beet (sugar beet; Rate 200 g/ha, POSTEMERGENCE): 10
Plant response rating, Nutsedge (purple nutsedge; POSTEMERGENCE, Rate 50 g/ha): 5
Plant response rating, Nutsedge (purple nutsedge; PREEMERGENCE, Rate 50 g/ha): 0
Plant response rating (0 to 10 scale), Nutsedge (purple nutsedge; PREEMERGENCE, Rate 200 g/ha): 0
Plant response rating, Nutsedge (purple nutsedge; Rate 200 g/ha, POSTEMERGENCE): 9
Plant response rating, Corn (corn; POSTEMERGENCE): 65
Plant response rating (0 to 100), Corn (corn; POSTEMERGENCE, Rate 2 g/ha): 40
Plant response rating, Corn (corn; PREEMERGENCE): 30
Plant response rating (0 to 100), Corn (corn; PREEMERGENCE, Rate 2 g/ha): 0
Plant response rating (0 to 100), Corn (corn; Rate 8 g/ha, POSTEMERGENCE): 40
Plant response rating (0 to 100), Corn (corn; Rate 8 g/ha, PREEMERGENCE): 0
Plant response rating (0 to 100), Corn (corn; Rate 31 g/ha, POSTEMERGENCE): 50
Plant response rating (0 to 100), Corn (corn; Rate 31 g/ha, PREEMERGENCE): 0
Plant response rating, Morningglory (morningglory; POSTEMERGENCE): 100
Plant response rating (0 to 100), Morningglory (morningglory; POSTEMERGENCE, Rate 2 g/ha): 50
Plant response rating, Morningglory (morningglory; PREEMERGENCE): 30
Plant response rating (0 to 100), Morningglory (morningglory; PREEMERGENCE, Rate 2 g/ha): 0
Plant response rating (0 to 100), Morningglory (morningglory; Rate 8 g/ha, POSTEMERGENCE): 70
Plant response rating (0 to 100), Morningglory (morningglory; Rate 8 g/ha, PREEMERGENCE): 0
Plant response rating (0 to 100), Morningglory (morningglory; Rate 31 g/ha, POSTEMERGENCE): 90
Plant response rating (0 to 100), Morningglory (morningglory; Rate 31 g/ha, PREEMERGENCE): 0
Plant response rating Pigweed (pigweed; POSTEMERGENCE): 100
Plant response rating (0 to 100), Pigweed (pigweed; POSTEMERGENCE, Rate 2 g/ha): 90
Plant response rating Pigweed (pigweed; PREEMERGENCE): 100
Plant response rating (0 to 100), Pigweed (pigweed; PREEMERGENCE, Rate 2 g/ha): 0
Plant response rating (0 to 100), Pigweed (pigweed; Rate 8 g/ha, POSTEMERGENCE): 100
Plant response rating (0 to 100), Pigweed (pigweed; Rate 8 g/ha, PREEMERGENCE): 100
Plant response rating (0 to 100), Pigweed (pigweed; Rate 31 g/ha, POSTEMERGENCE): 100
Plant response rating (0 to 100), Pigweed (pigweed; Rate 31 g/ha, PREEMERGENCE): 100
Plant response rating, Sorghum (sorghum; POSTEMERGENCE): 85
Plant response rating (0 to 100), Sorghum (sorghum; POSTEMERGENCE, Rate 2 g/ha): 30
Plant response rating, Sorghum (sorghum; PREEMERGENCE): 20
Plant response rating (0 to 100), Sorghum (sorghum; PREEMERGENCE, Rate 2 g/ha): 0
Plant response rating (0 to 100), Sorghum (sorghum; Rate 8 g/ha, POSTEMERGENCE): 50
Plant response rating (0 to 100), Sorghum (sorghum; Rate 8 g/ha, PREEMERGENCE): 0
Plant response rating (0 to 100), Sorghum (sorghum; Rate 31 g/ha, POSTEMERGENCE): 50
Plant response rating (0 to 100), Sorghum (sorghum; Rate 31 g/ha, PREEMERGENCE): 10
Plant response rating (0 to 100), Rice Japonica (rice [2]; [3]): 0
Plant response rating (0 to 100), Rice Japonica (rice [2]; [4]): 0
Plant response rating (0 to 100), Rice Japonica (rice [2]; [5]): 0
Plant response rating Rice Japonica (rice [2]; [6]): 50
Plant response rating (0 to 100), Umbrella sedge (umbrella sedge; [3]): 25
Plant response rating (0 to 100), Umbrella sedge (umbrella sedge; [4]): 30
Plant response rating (0 to 100), Umbrella sedge (umbrella sedge; [5]): 70
Plant response rating Umbrella sedge (umbrella sedge; [6]): 100
Plant response rating (0 to 100), Barnyardgrass 2 (barnyardgrass; [3]): 0
Plant response rating (0 to 100), Barnyardgrass 2 (barnyardgrass; [4]): 95
Plant response rating (0 to 100), Barnyardgrass 2 (barnyardgrass; [5]): 100
Plant response rating Barnyardgrass 2 (barnyardgrass; [6]): 100
